Series [1] addresses T1, BrlR (Pseudomonas aeruginosa, UniProt Q9HUT5).
T1 construct: His6-SUMO (N, cleaved yes); made in house; host or cells: E. coli BL21 DE3
Put plainly: Fluorescence polarization (FP) binding assay, wild-type BrlR. As to conditions: 1 nM fluorescent ligand, 25 °C. An excerpt:
The most striking feature of the BrlR–c-di-GMP complex is the c-di-GMP-binding mode. The DNA-binding domain contains two separate c-di-GMP-binding sites, and shares a mutually intercalated c-di-GMP dimer in a stacking conformation with a crystallographic symmetry related binding site (Fig. 2a–c). […] The interactions stabilizing the c-di-GMPs are different for the two binding sites (Fig. 2d, e, and details are described in Supplementary Note 1). […] This structural feature allows us to perform fluorescence polarization (FP)-based binding assays[19],[23],[24] by using a fluoresceinated c-di-GMP analog, 2′-Fluo-AHC-c-di-GMP (F-c-di-GMP), containing a fluorophore attached to one of the 2′-ribose hydroxyls (Fig. 2f).
(§1) F-c-di-GMP and F-c-di-AMP both contain a fluorophore at one of the 2′-ribose hydroxyls of c-di-GMP and c-di-AMP, respectively (Fig. 2f). To measure the binding of c-di-GMP and c-di-AMP to BrlR variants, 1 nM F-c-di-GMP or F-c-di-AMP was incubated with increasing amounts of indicated BrlR WT, BrlR mutation, or BrlR-C in reaction buffer (25 mM HEPES, 100 mM NaCl, pH 7.5) at 25 °C for 20 min. 1 nM fluorescein was incubated with BrlR WT in the same reaction buffer at 25 °C. FP measurements were conducted on a Synergy 4 Microplate Reader (BioTek) at 25 °C. All experiments were performed in triplicate. The curves were fitted to deduce binding affinities by GraphPad Prism 5.

Series [2] concerns the target T2, BrlR-C2E mut1 (R31A/D35A/Y40A/Y270A) (Pseudomonas aeruginosa, UniProt Q9HUT5, D35A/R31A/Y270A/Y40A).
T2 construct: His6-SUMO (N, cleaved yes); made in house; host or cells: E. coli BL21 DE3
Put plainly: FP binding assay, BrlR-C2E mut1. The method, then:
as §1
(§2) BrlR–c-di-GMPs interactions in two separate c-di-GMP binding sites
(§3) In the first binding site, c-di-GMP is half accommodated by the antiparallel β-sheet and two residues (M1 and D35). In detail, the backbone amide protons of the first M1 residue form a hydrogen bond (H-bond) with the phosphate oxygen atom of c-di-GMP, and the side chain of R31 forms two H-bonds with the Gua1 base. The residue D35 also forms an H-bond with the Gua1 base. The aromatic ring of Y40 interacts with the Gua1 base through a hydrophobic π-π interaction. In addition, the hydroxyl group of the Y270 side chain from another subunit interacts with the phosphate 2 of c-di-GMP via an H-bond (Fig. 2d). […]

Series [3] has as its target T3, BrlR-C2E mut2 (R67A/R86A) (Pseudomonas aeruginosa, UniProt Q9HUT5, R67A/R86A).
T3 construct: His6-SUMO (N, cleaved yes); made in house; host or cells: E. coli BL21 DE3
Put plainly: FP binding assay, BrlR-C2E mut2. The method, then:
as §1, §2, §3

Series [4] concerns the target T4, BrlR-C (Pseudomonas aeruginosa, UniProt Q9HUT5).
T4 construct: His6 (cleaved yes); made in house; host or cells: E. coli (same protocol as BrlR, induction at 18 °C)
Put plainly: FP competition experiment, BrlR-C. Type of series: binding. As to conditions: 550 μM BrlR-C, 1 nM F-c-di-GMP. The method, then: Supplementary Figure 11: FP analyses of F-c-di-GMP binding to BrlR-C. (a) Isotherms of BrlR-C binding to F-c-di-GMP. The binding experiment was carried out at 25 °C in a buffer containing 150 mM NaCl, 25 mM Tris·HCl (pH 7.5), and 1 nM F-c-di-GMP. Increasing concentrations of BrlR-C were titrated into the reaction mixture to obtain the binding isotherms. (b) Fluorescence polarization competition experiment of BrlR-C. As a control, 550 μM BrlR-C was added to the reaction tube containing 1 nM F-c-di-GMP, and different competitors were respectively added in the solution and the values of millipolarization were recorded.
(1 picture or pasted object on this page, not shown here)

Series [5] addresses T5, BrlR-C domain (Pseudomonas aeruginosa, UniProt Q9HUT5).
T5 construct: His6 (cleaved yes); made in house; host or cells: E. coli (same protocol as BrlR, induction at 18 °C)
Kind of series: Native gel staining with EB. Type of series: binding. An excerpt:
Fig. 5 The BrlR-C domain can bind to diverse toxic compounds with two adjacent binding pockets. a Structural superpositions of BrlR-C and RH6G-bound SAV2435 (PDB code: 5KAU). The residues in contact with the ligand are shown as stick models and are labeled. Electron density (2Fo - Fc map) for imidazole (blue mesh) binding to the BrlR–c-di-GMP complex is contoured at the 1σ level. b The chemical structures of toxic compounds. c FP analyses of the fluorescein binding to BrlR. The binding curves were fit to deduce the binding affinities. d Two μg of BrlR variants were run on the native gel and stained with EB; the scan results are shown in the upper panel. The proteins were visualized by staining with Coomassie blue in the lower panel. e SPR sensorgram and the resulting affinity fit for pyocyanin binding to BrlR. The ligand binding and dissociation phases for all sensorgrams are shown in the upper panel. The concentrations of a pyocyanin are indicated. The binding responses were measured for 4 s before the end of the injection, and the KD values were calculated using the BIAevaluation software in the lower panel. f The monomeric structure of BrlR-C-3A2P complex. 3A2P, PEG and the conserved residues are shown in stick mode. […]
of multidrug inducers in their C-terminal multidrug-binding domains1-3. […]
However, much more dimers than tetramers were detected (Supplementary Fig. 13a). […]

For series [6], the target named is T1, BrlR. As to conditions: ref 1 (Chambers et al., 2014) of response letter; cited from earlier work.
Series [7] concerns the target T6, BrlR (UniProt Q9HUT5 1-270).
T6 sequence: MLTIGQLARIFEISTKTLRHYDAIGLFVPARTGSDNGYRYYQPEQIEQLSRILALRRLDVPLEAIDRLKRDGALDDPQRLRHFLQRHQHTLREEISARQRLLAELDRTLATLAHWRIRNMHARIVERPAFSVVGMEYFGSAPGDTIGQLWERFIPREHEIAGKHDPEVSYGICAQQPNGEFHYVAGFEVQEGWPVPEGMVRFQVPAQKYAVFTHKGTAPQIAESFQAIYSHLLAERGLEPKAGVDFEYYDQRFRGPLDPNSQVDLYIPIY
Kind of series: EMSA. As to conditions: protein: recombinant; tags: none (His6-SUMO removed); chain copies: 4; label: 5' FAM on strand 1; blunt. For orientation: A gel shift assay detects complexes by their altered migration in electrophoresis.

The target in series [8] is T7, BrlR C2E mut1 (UniProt Q9HUT5 1-270, R31A;D35A;Y40A;Y270A).
T7 sequence: T6 sequence with R31A, D35A, Y40A, Y270A
Put plainly: EMSA; c-di-GMP (increased). As to conditions: protein: recombinant; tags: none (His6-SUMO removed); chain copies: 2; label: 5' FAM on strand 1; blunt.

Series [9] addresses T8, BrlR C2E mut2 (UniProt Q9HUT5 1-270, R67A;R86A).
T8 sequence: T6 sequence with R67A, R86A
Put plainly: EMSA; c-di-GMP (increased). As to conditions: protein: recombinant; tags: none (His6-SUMO removed); chain copies: 2; label: 5' FAM on strand 1; blunt.

Changes are numbered by the printed parent chain.

T3 sequence (Q9HUT5 whole entry R67A/R86A): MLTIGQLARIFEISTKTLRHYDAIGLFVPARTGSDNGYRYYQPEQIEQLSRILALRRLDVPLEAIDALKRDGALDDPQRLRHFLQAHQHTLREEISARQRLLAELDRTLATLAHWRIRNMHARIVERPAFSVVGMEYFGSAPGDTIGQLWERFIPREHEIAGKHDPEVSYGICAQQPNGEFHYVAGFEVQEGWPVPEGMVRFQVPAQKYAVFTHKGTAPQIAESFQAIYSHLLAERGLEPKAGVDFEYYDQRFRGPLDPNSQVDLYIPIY
T2 sequence (Q9HUT5 whole entry R31A/D35A/Y40A/Y270A): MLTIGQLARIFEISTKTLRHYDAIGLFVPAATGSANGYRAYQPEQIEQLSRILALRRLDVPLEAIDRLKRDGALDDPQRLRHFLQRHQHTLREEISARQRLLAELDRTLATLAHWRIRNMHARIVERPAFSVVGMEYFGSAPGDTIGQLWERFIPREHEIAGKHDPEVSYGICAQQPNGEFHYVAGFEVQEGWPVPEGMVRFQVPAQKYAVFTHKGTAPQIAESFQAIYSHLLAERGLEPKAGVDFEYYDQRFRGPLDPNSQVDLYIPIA

2′-fluo-AHC-c-di-AMP [F-c-di-AMP]: the Kd – broadly, the equilibrium constant for the complex coming apart – worked out at 12.9 ± 0.7 µM in [1], 12.9 ± 0.65 µM in [1] (listed as 2′-fluo-AHC-c-di-AMP), 63.7 ± 5.1 µM in [2] and 10.3 ± 0.2 µM in series [3].
On to `CC[n+]1c(-c2ccccc2)c2cc(N)ccc2c2ccc(N)cc21` [EB, ethidium bromide], for which the “competition with F-c-di-GMP binding to BrlR-C” value in series [4] was “outcompeted”. For the same molecule, the “staining of protein in native gel” value in series [5] is recorded as “readily stained”.
As to `Nc1nc2c(ncn2[C@@H]2O[C@H](COP(=O)(O)OP(=O)(O)OP(=O)(O)O)[C@@H](O)[C@H]2O)c(=O)[nH]1` [GTP], the “effect on binding of c-di-GMP to BrlR” value in series [6] is on record as “not affected”.

B1: PbrlR 36-bp (dsDNA)
DNA 1: ACCCCTTGACCTTGCCCCAGGGGCAATCCGTAGTCT
DNA 2: AGACTACGGATTGCCCCTGGGGCAAGGTCAAGGGGT
For B1, the binding result in series [7], in series [8] and in series [9] was “binds” in each case.

Values taken from publication PMC6028453, “BrlR from Pseudomonas aeruginosa is a receptor for both cyclic di-GMP and pyocyanin” (Nature Communications, 2018).
